Target: T1, BACE1 enzyme (Homo sapiens, UniProt P56817)
T1 construct: transfected with a soluble BACE construct (BACE1deltaTM96His); His (C); made in house; host or cells: CHO-K1 cells (secreted into conditioned media)
Assay: BACE1 Cell-Free Assay (fluorescence polarization, cleavage of synthetic APP substrate)
Type: biochemical
Conditions: geometric mean of 2-4 determinations unless otherwise indicated (b: ≥5 determinations; c: single determination); 0.1 nM BACE1, 150 nM peptide substrate, pH 4.5, 3 hours at 37° C.
Text: BACE1 Cell-Free Assay: Beta-secretase (BACE) is one of the enzymes involved in the generation of the amyloid beta peptide found in the amyloid plaques of Alzheimer's disease patients. This assay measures the inhibition of the beta-secretase enzyme as it cleaves a non-native peptide.
A synthetic APP substrate that can be cleaved by beta-secretase having N-terminal biotin and made fluorescent by the covalent attachment of Oregon Green at the Cys residue is used to assay beta-secretase activity in the presence or absence of the inhibitory compounds. The substrate is Biotin-GLTNIKTEEISEISY^EVEFR-C[Oregon Green]KK-OH. The BACE1 enzyme is affinity purified material from conditioned media of CHO-K1 cells that have been transfected with a soluble BACE construct (BACE1deltaTM96His). Compounds are incubated in a ½ log dose response curve from a top concentration of 100 μM with BACE1 enzyme and the biotinylated fluorescent peptide in 384-well black plates (Thermo Scientific #4318). BACE1 is at a final concentration of 0.1 nM with a final concentration of peptide substrate of 150 nM in a reaction volume of 30 μL assay buffer [100 mM sodium acetate, pH 4.5 (brought to pH with acetic acid), and 0.001% Tween-20]. Plates are covered and incubated for 3 hours at 37° C. The reaction is stopped with the addition of 30 μL of 1.5 μM Streptavidin (Pierce, #21125). After a 10 minute incubation at room temperature, plates are read on a PerkinElmer EnVision for fluorescence polarization (Ex485 nm/Em530 nm). The activity of the beta-secretase enzyme is detected by changes in the fluorescence polarization that occur when the substrate is cleaved by the enzyme.

T1 sequence (P56817 46-457 limits assumed): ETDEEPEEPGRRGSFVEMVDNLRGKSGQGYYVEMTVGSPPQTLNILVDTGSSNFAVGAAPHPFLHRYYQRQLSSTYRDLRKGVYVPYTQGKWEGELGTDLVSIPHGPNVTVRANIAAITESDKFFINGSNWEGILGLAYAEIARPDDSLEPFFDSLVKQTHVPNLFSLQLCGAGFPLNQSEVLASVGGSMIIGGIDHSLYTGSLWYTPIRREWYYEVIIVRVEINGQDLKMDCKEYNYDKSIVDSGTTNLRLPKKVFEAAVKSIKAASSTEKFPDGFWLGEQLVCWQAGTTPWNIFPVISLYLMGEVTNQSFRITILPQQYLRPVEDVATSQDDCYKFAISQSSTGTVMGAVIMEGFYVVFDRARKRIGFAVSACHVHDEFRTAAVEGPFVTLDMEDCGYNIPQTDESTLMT

IC50 [nM]	Compound
675	NC1=N[C@@]2(c3nc(NC(=O)c4ccc(OC(F)F)cn4)cs3)COC3(COC3)C[C@H]2CS1 [Example 29, N-{2-[(4a′R,8a′R)-2′-amino-4a′,5′-dihydro-4′H-spiro[oxetane-3,6′-pyrano[3,4-d][1,3]thiazin]-8a′(8′H)-yl]-1,3-thiazol-4-yl}-5-(difluoromethoxy)pyridine-2-carboxamide]
194	C[C@@]1(CF)C[C@H]2CSC(N)=N[C@@]2(c2nc(NC(=O)c3ccc(OC(F)F)cn3)cs2)CO1 [Example 34, N-{2-[(4aR,6S,8aR)-2-amino-6-(fluoromethyl)-6-methyl-4,4a,5,6-tetrahydropyrano[3,4-d][1,3]thiazin-8a(8H)-yl]-1,3-thiazol-4-yl}-5-(difluoromethoxy) pyridine-2-carboxamide]
176	C[C@]1(CF)C[C@H]2CSC(N)=N[C@@]2(c2nc(NC(=O)c3ccc(OC(F)F)cn3)cs2)CO1 [Example 35, N-{2-[(4aR,6R,8aR)-2-amino-6-(fluoromethyl)-6-methyl-4,4a,5,6-tetrahydropyrano[3,4-d][1,3]thiazin-8a(8H)-yl]-1,3-thiazol-4-yl}-5-(difluoromethoxy) pyridine-2-carboxamide]
714	NC1=N[C@@]2(c3nc(NC(=O)c4ccc(F)cn4)cs3)COC3(CCC3)C[C@H]2CS1 [Example 41, N-{2-[(4a′R,8a′R)-2′-amino-4a′,5′-dihydro-4′H-spiro[cyclobutane-1,6′-pyrano[3,4-d] [1,3]thiazin]-8a′(8′H)-yl]-1,3-thiazol-4-yl}-5-fluoropyridine-2-carboxamide]

Continued, compound first:

Compound	IC50 [nM]
CC1(C)C[C@H]2CSC(N)=N[C@@]2(c2nc(NC(=O)c3ncc(OC(F)F)cc3Cl)cs2)CO1 [Example 30, N-{2-[(4aR,8aR)-2-amino-6,6-dimethyl-4,4a,5,6-tetrahydropyrano[3,4-d][1,3]thiazin-8a(8H)-yl]-1,3-thiazol-4-yl}-3-chloro-5-(difluoromethoxy)pyridine-2-carboxamide]	59
CC1(C)C[C@H]2CSC(N)=N[C@@]2(c2nc(NC(=O)C(C)(C)F)cs2)CO1 [Example 31, N-{2-[(4aR,8aR)-2-amino-6,6-dimethyl-4,4a,5,6-tetrahydropyrano[3,4-d][1,3]thiazin-8a(8H)-yl]-1,3-thiazol-4-yl}-2-fluoro-2-methylpropanamide]	911
COC(C)(C)C(=O)Nc1csc([C@]23COC(C)(C)C[C@H]2CSC(N)=N3)n1 [Example 32, N-{2-[(4aR,8aR)-2-amino-6,6-dimethyl-4,4a,5,6-tetrahydropyrano[3,4-d][1,3]thiazin-8a(8H)-yl]-1,3-thiazol-4-yl}-2-methoxy-2-methylpropanamide]	1690
CC1(C)C[C@H]2CSC(N)=N[C@@]2(c2nc(NC(=O)C34CC(C3)C4)cs2)CO1 [Example 33, N-{2-[(4aR,8aR)-2-amino-6,6-dimethyl-4,4a,5,6-tetrahydropyrano[3,4-d][1,3]thiazin-8a(8H)-yl]-1,3-thiazol-4-yl} bicyclo[1.1.1]pentane-1-carboxamide]	734
CC[C@@]1(C)C[C@H]2CSC(N)=N[C@@]2(c2nc(NC(=O)c3ncc(OC(F)F)cc3C)cs2)CO1 [Example 36, N-{2-[(4aR,6S,8aR)-2-amino-6-ethyl-6-methyl-4,4a,5,6-tetrahydropyrano[3,4-d][1,3]thiazin-8a(8H)-yl]-1,3-thiazol-4-yl}-5-(difluoromethoxy)-3-methylpyridine-2-carboxamide]	60
CC[C@@]1(C)C[C@H]2CSC(N)=N[C@@]2(c2nc(NC(=O)C3C4CC3C4)cs2)CO1 (stereo partly drawn) [Example 37, N-{2-[(4aR,6S,8aR)-2-amino-6-ethyl-6-methyl-4,4a,5,6-tetrahydropyrano[3,4-d][1,3]thiazin-8a(8H)-yl]-1,3-thiazol-4-yl}bicyclo[1.1.1]pentane-2-carboxamide]	177
COC[C@]1(C)C[C@H]2CSC(N)=N[C@@]2(c2nc(NC(=O)c3ccc(OC(F)F)cn3)cs2)CO1 [Example 40, N-{2-[(4aR,6S,8aR)-2-amino-6-(methoxymethyl)-6-methyl-4,4a,5,6-tetrahydropyrano[3,4-d][1,3]thiazin-8a(8H)-yl]-1,3-thiazol-4-yl}-5-(difluoromethoxy) pyridine-2-carboxamide]	2080
